#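 Interpolation was linear, between the two tested concentrations surrounding the appropriate level; five concentrations were tested over 48 hours in 96-well plates. Abbreviation: GI50, concentration required for 50% inhibition of growth.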 Calls of active or inactive are those of the source. Rule as the data show it: active = GI50 up to about 1.1 µM and inactive = higher.
# Columns and labels:
# Assay in all cases: NCI-60 cell line screen, 48 h
# [1] = system: SW-620
# [2] = system: HOP-62
# [3] = system: UACC-62
# [4] = system: SK-MEL-2
# [5] = system: RXF 393
# [6] = system: CCRF-CEM
# [7] = system: Hs-578T
# [8] = system: OVCAR-3
# [9] = system: M14
# [10] = system: BT-549
# [11] = system: HCT-15
# [12] = system: SNB-19
# [13] = system: SK-MEL-28
# [14] = system: DU-145
# [15] = system: LOX IMVI
# [16] = system: HL-60
# [17] = system: SR
# [18] = system: IGROV-1
# [19] = system: UO-31
# [20] = system: COLO 205
# [21] = system: MDA-MB-231
# [22] = system: PC-3
# [23] = system: NCI/ADR-RES
# [24] = system: SN12C
# [25] = system: HCT-116
# [26] = system: SK-MEL-5
# [27] = system: A498
# [28] = system: MDA-N
# [29] = system: HCC 2998
# [30] = system: OVCAR-8
# [31] = system: MCF7
# [32] = system: HOP-92
# [33] = system: SF-295
# [34] = system: OVCAR-5
# [35] = system: NCI-H23
# [36] = system: UACC-257
# [37] = system: EKVX
# [38] = system: SF-268
# [39] = system: OVCAR-4
# [40] = system: HT-29
# [41] = system: MOLT-4
# [42] = system: RPMI-8226
# [43] = system: SK-OV-3
# [44] = system: A549
# [45] = system: 786-0
# [46] = system: Malme-3M
# [47] = system: KM12
# [48] = system: ACHN
# [49] = system: MDA-MB-435
# [50] = system: K562
# [51] = system: TK-10
# [52] = system: CAKI-1
# [53] = system: U-251
# [54] = system: SNB-75
# [55] = system: T47D
# [56] = system: SF-539
# [57] = system: NCI-H460
# [58] = system: NCI-H226
# [59] = system: NCI-H522
structure (smiles),measurement,setting,value
CC(=O)OCC1OC(n2c(N)c(C#N)c(-c3cccc(Cl)c3)c(C#N)c2=S)C(OC(C)=O)C(OC(C)=O)C1OC(C)=O (stereo not drawn),GI50,[1],32.7 µM (inactive)
same,GI50,[2],23.3 µM (inactive)
same,GI50,[3],26.9 µM (inactive)
same,GI50,[4],19 µM (inactive)
same,GI50,[5],3.9 µM (inactive)
same,GI50,[6],3.31 µM (inactive)
same,GI50,[7],20 µM (inactive)
same,GI50,[8],14.8 µM (inactive)
same,GI50,[9],22.4 µM (inactive)
same,GI50,[10],20.7 µM (inactive)
same,GI50,[11],22.5 µM
same,GI50,[12],31.5 µM (inactive)
same,GI50,[13],38.7 µM (inactive)
same,GI50,[14],18.2 µM (inactive)
same,GI50,[15],14.7 µM (inactive)
same,GI50,[16],17.9 µM (inactive)
same,GI50,[17],14.7 µM (inactive)
same,GI50,[18],30.5 µM (inactive)
same,GI50,[19],40.2 µM (inactive)
same,GI50,[20],16.2 µM (inactive)
same,GI50,[21],18.9 µM (inactive)
same,GI50,[22],24.9 µM (inactive)
same,GI50,[23],28.4 µM (inactive)
same,GI50,[24],37.6 µM (inactive)
same,GI50,[25],22.4 µM (inactive)
same,GI50,[26],14.3 µM (inactive)
same,GI50,[27],20.6 µM (inactive)
same,GI50,[28],19.1 µM (inactive)
same,GI50,[29],10.8 µM (inactive)
same,GI50,[30],14.9 µM (inactive)
same,GI50,[31],21.5 µM (inactive)
same,GI50,[32],23 µM (inactive)
same,GI50,[33],31.2 µM (inactive)
same,GI50,[34],44.8 µM (inactive)
same,GI50,[35],24.2 µM (inactive)
same,GI50,[36],22 µM (inactive)
same,GI50,[37],27.2 µM (inactive)
same,GI50,[38],13.3 µM (inactive)
same,GI50,[39],16.7 µM (inactive)
same,GI50,[40],24.5 µM (inactive)
same,GI50,[41],11.9 µM (inactive)
same,GI50,[42],10.9 µM (inactive)
same,GI50,[43],20.7 µM (inactive)
same,GI50,[44],24.3 µM (inactive)
same,GI50,[45],22.2 µM (inactive)
same,GI50,[46],25.2 µM (inactive)
same,GI50,[47],15.5 µM (inactive)
same,GI50,[48],29.1 µM (inactive)
same,GI50,[49],15.4 µM (inactive)
same,GI50,[50],28.2 µM (inactive)
same,GI50,[51],19.9 µM (inactive)
same,GI50,[52],26.8 µM (inactive)
same,GI50,[53],22.8 µM (inactive)
same,GI50,[54],22.2 µM (inactive)
same,GI50,[55],18.9 µM (inactive)
same,GI50,[56],12.6 µM (inactive)
same,GI50,[57],24.8 µM (inactive)
CC(=O)OCC1OC(n2c(C)c(/N=N/c3ccccc3)c(C)c(C#N)c2=S)C(OC(C)=O)C(OC(C)=O)C1OC(C)=O (stereo not drawn),GI50,[1],> 100 µM (inactive)
same,GI50,[2],14.4 µM (inactive)
same,GI50,[3],14.8 µM (inactive)
same,GI50,[4],24.9 µM (inactive)
same,GI50,[5],14.4 µM (inactive)
same,GI50,[6],> 100 µM (inactive)
same,GI50,[7],5.32 µM (inactive)
same,GI50,[8],> 100 µM (inactive)
same,GI50,[9],33.7 µM (inactive)
same,GI50,[10],49.3 µM (inactive)
same,GI50,[12],24.2 µM (inactive)
same,GI50,[13],> 100 µM (inactive)
same,GI50,[14],83.4 µM (inactive)
same,GI50,[15],39.6 µM (inactive)
same,GI50,[16],> 100 µM (inactive)
same,GI50,[17],> 100 µM (inactive)
same,GI50,[18],99.1 µM (inactive)
same,GI50,[19],> 100 µM (inactive)
same,GI50,[20],86.3 µM (inactive)
same,GI50,[21],20.6 µM (inactive)
same,GI50,[22],> 100 µM (inactive)
same,GI50,[23],55.3 µM (inactive)
same,GI50,[24],81.5 µM (inactive)
same,GI50,[25],16.9 µM (inactive)
same,GI50,[26],34 µM (inactive)
same,GI50,[28],> 100 µM (inactive)
same,GI50,[29],> 100 µM (inactive)
same,GI50,[31],> 100 µM (inactive)
same,GI50,[32],8.99 µM (inactive)
same,GI50,[33],15 µM (inactive)
same,GI50,[34],86.9 µM (inactive)
same,GI50,[35],> 100 µM (inactive)
same,GI50,[36],> 100 µM (inactive)
same,GI50,[38],57.1 µM (inactive)
same,GI50,[39],48.9 µM (inactive)
same,GI50,[40],> 100 µM (inactive)
same,GI50,[41],> 100 µM (inactive)
same,GI50,[42],> 100 µM (inactive)
same,GI50,[43],22.6 µM (inactive)
same,GI50,[44],57.3 µM (inactive)
same,GI50,[45],7.38 µM (inactive)
same,GI50,[46],46.3 µM (inactive)
same,GI50,[47],> 100 µM (inactive)
same,GI50,[48],> 100 µM (inactive)
same,GI50,[49],> 100 µM (inactive)
same,GI50,[50],> 100 µM (inactive)
same,GI50,[51],29 µM (inactive)
same,GI50,[52],26.6 µM (inactive)
same,GI50,[53],> 10 µM (inactive)
same,GI50,[54],1.85 µM (inactive)
same,GI50,[55],> 100 µM (inactive)
same,GI50,[56],58.7 µM (inactive)
same,GI50,[57],39.8 µM (inactive)
O=C1C([N-]S(=O)(=O)c2ccccc2)=C([n+]2ccc(Cc3ccccc3)cc2)C(=O)c2ccccc21,GI50,[1],0.641 µM (active)
same,GI50,[2],1.75 µM (inactive)
same,GI50,[3],1.15 µM (inactive)
same,GI50,[4],1.5 µM (inactive)
same,GI50,[5],2.31 µM (inactive)
same,GI50,[6],29.7 µM (inactive)
same,GI50,[7],2.19 µM (inactive)
same,GI50,[8],0.142 µM (active)
same,GI50,[9],1.32 µM (inactive)
same,GI50,[10],1.36 µM (inactive)
same,GI50,[11],1.69 µM
same,GI50,[12],1.71 µM (inactive)
same,GI50,[13],0.859 µM (active)
same,GI50,[14],1.53 µM (inactive)
same,GI50,[15],0.424 µM (active)
same,GI50,[16],1.38 µM (inactive)
same,GI50,[17],2.59 µM (inactive)
same,GI50,[18],1.79 µM (inactive)
same,GI50,[19],2.13 µM (inactive)
same,GI50,[20],0.0644 µM (active)
same,GI50,[21],2.56 µM (inactive)
same,GI50,[22],2.21 µM (inactive)
same,GI50,[23],2.83 µM (inactive)
same,GI50,[24],1.7 µM (inactive)
same,GI50,[25],0.91 µM (active)
same,GI50,[26],0.145 µM (active)
same,GI50,[28],0.191 µM (active)
same,GI50,[58],1.67 µM (inactive)
same,GI50,[29],1.2 µM (inactive)
same,GI50,[30],2.04 µM (inactive)
same,GI50,[31],0.435 µM (active)
same,GI50,[32],2.72 µM (inactive)
same,GI50,[33],1.79 µM (inactive)
same,GI50,[34],2.03 µM (inactive)
same,GI50,[35],0.284 µM (active)
same,GI50,[36],1.22 µM (inactive)
same,GI50,[37],1.76 µM (inactive)
same,GI50,[38],1.71 µM (inactive)
same,GI50,[39],1.56 µM (inactive)
same,GI50,[40],0.263 µM (active)
same,GI50,[41],1.81 µM (inactive)
same,GI50,[42],1.65 µM (inactive)
same,GI50,[43],6.12 µM (inactive)
same,GI50,[44],1.92 µM (inactive)
same,GI50,[45],1.73 µM (inactive)
same,GI50,[46],0.376 µM (active)
same,GI50,[59],0.614 µM (active)
same,GI50,[47],1.89 µM (inactive)
same,GI50,[48],1.79 µM (inactive)
same,GI50,[49],0.18 µM (active)
same,GI50,[50],0.359 µM (active)
same,GI50,[51],1.66 µM (inactive)
same,GI50,[52],1.73 µM (inactive)
same,GI50,[53],1.85 µM (inactive)
same,GI50,[54],1.31 µM (inactive)
same,GI50,[55],3.46 µM (inactive)
same,GI50,[56],1.79 µM (inactive)
same,GI50,[57],0.535 µM (active)
